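Values below derive from 48-hour exposures of cells grown in 96-well plates, with endpoints linearly interpolated between the two concentrations bracketing the appropriate inhibition level. GI50 is the concentration that inhibits growth by half. Definition used: TGI = concentration required for complete inhibition of growth.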
Experiments:
Test in all cases: NCI tumour cell line growth inhibition, 48 h
[1] = test system: 786-0 renal
[2] = test system: A498 renal
[3] = test system: A549 NSCLC
[4] = test system: BT-549 breast
[5] = test system: CAKI-1 renal
[6] = test system: COLO 205 colon
[7] = test system: HCC-2998 colon
[8] = test system: HCT-116 colon
[9] = test system: HL-60(TB) leukemia
[10] = test system: HOP-62 NSCLC
[11] = test system: HOP-92 NSCLC
[12] = test system: HT29 colon
[13] = test system: IGROV1 ovarian
[14] = test system: K-562 leukemia
[15] = test system: KM12 colon
[16] = test system: LOX IMVI melanoma
[17] = test system: MALME-3M melanoma
[18] = test system: MDA-MB-231 breast
[19] = test system: MOLT-4 leukemia
[20] = test system: NCI-H226 lung
[21] = test system: NCI-H23 lung
[22] = test system: NCI-H460 lung
[23] = test system: NCI-H522 lung
[24] = test system: NCI/ADR-RES ovarian
[25] = test system: OVCAR-3 ovarian
[26] = test system: OVCAR-4 ovarian
[27] = test system: OVCAR-8 ovarian
[28] = test system: PC-3 prostate
[29] = test system: RXF 393 renal
[30] = test system: SF-268 CNS
[31] = test system: SF-295 CNS
[32] = test system: SF-539 CNS
[33] = test system: SK-MEL-2 melanoma
[34] = test system: SK-MEL-28 melanoma
[35] = test system: SK-MEL-5 melanoma
[36] = test system: SK-OV-3 ovarian
[37] = test system: SN12C renal
[38] = test system: SNB-75 CNS
[39] = test system: SW-620 colon
[40] = test system: T-47D breast
[41] = test system: U251 CNS
[42] = test system: UACC-257 melanoma
[43] = test system: UACC-62 melanoma
[44] = test system: UO-31 renal

C#Cc1ccc(-n2c(/C=C/c3ccc4ccccc4n3)nc3ncccc3c2=O)cc1
GI50 [1]: 575 nM | TGI [1]: 2240 nM | GI50 [2]: 138 nM | TGI [2]: 615 nM | GI50 [3]: 353 nM | TGI [3]: 1830 nM | GI50 [4]: 514 nM | TGI [4]: 2190 nM | GI50 [5]: 501 nM | TGI [5]: 2690 nM | GI50 [6]: 300 nM | TGI [6]: 734 nM | GI50 [7]: 640 nM | TGI [7]: 1790 nM | GI50 [8]: 346 nM | TGI [8]: 1200 nM | GI50 [9]: 297 nM | TGI [9]: 851 nM | GI50 [10]: 850 nM | TGI [10]: 2360 nM | GI50 [11]: 370 nM | TGI [11]: 1800 nM | GI50 [12]: 375 nM | TGI [12]: 1130 nM | GI50 [13]: 428 nM | TGI [13]: 1580 nM | GI50 [14]: 330 nM | TGI [14]: > 100 µM | GI50 [15]: 359 nM | TGI [15]: 1260 nM | GI50 [16]: 169 nM | TGI [16]: 657 nM | GI50 [17]: 798 nM | TGI [17]: 2350 nM | GI50 [18]: 544 nM | TGI [18]: 1650 nM | GI50 [19]: 456 nM | TGI [19]: > 100 µM | GI50 [20]: 408 nM | TGI [20]: 1370 nM | GI50 [21]: 774 nM | TGI [21]: 2320 nM | GI50 [22]: 776 nM | TGI [22]: 2910 nM | GI50 [23]: 281 nM | TGI [23]: 779 nM | GI50 [24]: 338 nM | TGI [24]: 1230 nM | GI50 [25]: 317 nM | TGI [25]: 905 nM | GI50 [26]: 315 nM | TGI [26]: 1810 nM | GI50 [27]: 763 nM | TGI [27]: 2950 nM | GI50 [28]: 341 nM | TGI [28]: 1750 nM | GI50 [29]: 269 nM | TGI [29]: 792 nM | GI50 [30]: 488 nM | TGI [30]: 2330 nM | GI50 [31]: 386 nM | TGI [31]: 1520 nM | GI50 [32]: 593 nM | TGI [32]: 1930 nM | GI50 [33]: 306 nM | TGI [33]: 785 nM | GI50 [34]: 904 nM | TGI [34]: 2130 nM | GI50 [35]: 246 nM | TGI [35]: 683 nM | GI50 [36]: 351 nM | TGI [36]: 1080 nM | GI50 [37]: 469 nM | TGI [37]: 2030 nM | GI50 [38]: 389 nM | TGI [38]: 1450 nM | GI50 [39]: 387 nM | TGI [39]: 1520 nM | GI50 [40]: 366 nM | TGI [40]: 1280 nM | GI50 [41]: 419 nM | TGI [41]: 1590 nM | GI50 [42]: 436 nM | TGI [42]: 1920 nM | GI50 [43]: 394 nM | TGI [43]: 1750 nM | GI50 [44]: 403 nM | TGI [44]: 1800 nM

Source: PubChem BioAssay (NCI)
